Laboratory results as given in patent US20240374739A1, “BILE ACID CONJUGATE” (Curtin University, priority 2021, published 2024).

Tests used:
[1] = test system: Neurodegenerated cells (Alzheimer's disease model); assay: ROS (reactive oxygen species) assay, Alzheimer's disease model; type: cell-based, human; settings: AD model
Protocol: (§1) Perinatal tissue derived human stem cell model for Alzheimer's disease (AD) was prepared using proprietary protocols to test the effect of new drug entities. Drug treatment was for 24 h in all the assays.
Increase in oxidative stress is associated with accumulation of amyloid beta seen in the AD model. Increased oxidative stress and nitric oxide levels lead to apoptosis and evoke cytotoxic effects on neurons.

[2] = test system: Neurodegenerated cells (Alzheimer's disease model); assay: Immunocytochemical localization of AD specific and neuronal markers; type: cell-based, human; settings: fluorescence micrographs
Protocol: as §1
For further confirmation and protein localization of the AD specific neurodegenerative markers and neuronal markers, we performed immunolocalization for BACE1 and synapsin respectively.
Fluorescence micrographs of BACE1 positive neuronal cells were obtained and the effects of probucol, SPQ and HA-1 on neurodegeneration model were compared. […] In the AD model, as expected BACE1 accumulation is clearly pronounced.
In the case of synapsin 1, a disruption in expression of synapsin protein in ND cells was observed.

[3] = test system: Neurodegenerated cells (Parkinson's disease model); assay: Immunocytochemical localization of PD specific and neuronal markers; type: cell-based, human; settings: fluorescence micrographs
Protocol: (§2) Perinatal tissue derived human stem cell model for Parkinson's disease (PD) was prepared using proprietary protocols to test the effect of new drug entities. Drug treatment was for 24 hours in all the assays.
For further confirmation and protein localization of neuronal, dopaminergic and PD specific neurodegenerative markers, we performed immunolocalization for synapsin I, Nurr1, TH and α-synuclein respectively.
Fluorescence micrographs of synapsin 1 positive neuronal cells were obtained and the effects of probucol, SPQ and HA-1 on neurodegeneration model with L-Dopa as positive control were compared.
Fluorescence micrographs of Nurr1 positive dopaminergic neuronal cells were obtained and the effects of probucol, SPQ and HA-1 on neurodegeneration model with L-Dopa as positive control were compared.
Fluorescence micrographs of TH positive dopaminergic neuronal cells were obtained and the effects of probucol, SPQ and HA-1 on neurodegeneration model with L-Dopa as positive control were compared.
Fluorescence micrographs of α-synuclein immunolocalization were obtained and the effects of probucol, SPQ and HA-1 on neurodegeneration model with L-Dopa as positive control were compared.

[4] = test system: Neurodegenerated cells (Alzheimer's disease model); assay: Mitochondrial membrane potential by TMRE assay, Alzheimer's disease model; type: cell-based, human; settings: AD model; probucol 20 μM, SPQ 10 μM, HA-1 10 μM, rivastigmine 2 μM, 24 hours
Protocol: as §1
Aβ plaques are sources of toxicity that lead to severe structural and functional abnormalities in mitochondria in Alzheimer's disease. For assessing the changes in the electrophysiology and functional changes in the mitochondrial membrane potential, we used TMRE (tetramethylrhodamine ethyl ester) for quantifying changes in mitochondrial membrane potential in live cells by fluorimetry.

[5] = test system: Neurodegenerated cells (Alzheimer's disease model); assay: Glutathione peroxidase / GSH activity, Alzheimer's disease model; type: cell-based, human; settings: AD model; vs neurodegeneration
Protocol: as §1
Alzheimer's disease-related increase in oxidative stress is associated with decrease in the levels of brain antioxidant glutathione (GSH).
(Statistical analysis: results are expressed in mean±SD. One-way ANOVA followed by Dunnett's post hoc test was performed to compare all columns vs neurodegeneration (p<0.05; *p<0.05, **p<0.001, ***p<0.0001, ns=non-significant, n=3).)

[6] = target: T1, Acetylcholinesterase (AChE) (Homo sapiens, UniProt P22303); assay: Acetylcholinesterase (AChE) activity, Amplex Red reagent-based assay, Alzheimer's disease model; type: cell-based; settings: probucol 20 μM, SPQ 10 μM, HA-1 10 μM, rivastigmine 2 μM, 24 hours
T1 construct: We assayed for AChE activity and ACh release in control, neurodegenerated AD and drug treated AD cells; endogenous in cells; host or cells: neurodegenerated cells of a human stem cell AD model derived from perinatal tissue (amniotic membrane mesenchymal stem cells are named for the MTT assay)
T1 sequence (P22303 32-614): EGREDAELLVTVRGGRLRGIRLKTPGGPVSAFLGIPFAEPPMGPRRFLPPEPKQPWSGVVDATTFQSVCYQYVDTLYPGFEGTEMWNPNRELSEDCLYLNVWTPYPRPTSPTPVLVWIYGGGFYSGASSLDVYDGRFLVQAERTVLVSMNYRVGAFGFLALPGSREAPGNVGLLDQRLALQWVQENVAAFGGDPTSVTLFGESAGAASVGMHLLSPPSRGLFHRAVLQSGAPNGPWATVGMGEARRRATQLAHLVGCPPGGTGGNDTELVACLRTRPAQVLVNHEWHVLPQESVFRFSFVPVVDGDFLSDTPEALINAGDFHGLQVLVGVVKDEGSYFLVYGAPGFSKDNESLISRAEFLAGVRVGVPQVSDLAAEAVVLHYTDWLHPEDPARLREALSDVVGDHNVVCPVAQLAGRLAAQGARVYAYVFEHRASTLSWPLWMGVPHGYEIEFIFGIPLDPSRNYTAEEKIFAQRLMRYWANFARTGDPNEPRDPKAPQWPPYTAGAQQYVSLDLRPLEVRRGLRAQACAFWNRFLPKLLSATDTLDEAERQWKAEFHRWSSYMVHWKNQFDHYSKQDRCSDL
Protocol: as §1
Acetylcholinesterase (AChE) that regulates hydrolysis of acetylcholine (ACh) in the brain, is an important target for treatment of Alzheimer's disease (AD), a feature of which is ACh deficiency. We assayed for AChE activity and ACh release in control, neurodegenerated AD and drug treated AD cells.

[7] = test system: Neurodegenerated cells (perinatal tissue derived human stem cell model for Parkinson's disease); assay: Mitochondrial membrane potential by TMRE assay, Parkinson's disease model; type: cell-based; settings: PD model; probucol 20 μM, SPQ 10 μM, HA-1 10 μM, L-Dopa 50 μM, 24 hours
Protocol: as §2
Dysfunctional mitochondria and alterations in the mitochondrial membrane potential promote neurodegeneration seen in Parkinson's disease. For assessing the changes in mitochondrial membrane potential, we used TMRE (tetramethylrhodamine ethyl ester) to quantify the changes in live cells by fluorimetry.
Neurodegenerated cells were incubated with probucol (20 μM), SPQ (10 μM), HA-1 (10 μM) and L-Dopa (50 μM) for 24 hours (p<0.05; *p<0.05, **p<0.001, ***p<0.0001, ns=non-significant, n=3).

[8] = test system: Neurodegenerated cells (Alzheimer's disease model); assay: Gene expression analysis by qRT-PCR for neuronal, cholinergic and AD associated markers; type: cell-based, human; settings: 24 h drug treatment
Protocol: as §1
For determining the expression of genes involved in AD specific neurodegeneration and neuronal markers, we analysed BACE and chAT (AD and cholinergic markers) and synapsin 1 and neuropilin (neuronal markers).

[9] = test system: Neurodegenerated cells (Parkinson's disease model); assay: ROS assay, Parkinson's disease model; type: cell-based, human; settings: PD model
Protocol: as §2
Increase in oxidative stress associated with accumulation of α-synuclein plays a central role in disease progression. Nitric oxide enhances the aggregation of α-synuclein and accelerates disease progression. Increased oxidative stress and nitric oxide levels lead to apoptosis and evoke cytotoxic effects on neurons.

[10] = test system: Neurodegenerated cells (Parkinson's disease model); assay: Gene expression analysis by qRT-PCR for neuronal, dopaminergic and PD associated markers; type: cell-based, human; settings: 24 hours drug treatment
Protocol: as §2
Gene expression levels of mature neuronal marker (Synapsin I), dopaminergic markers (Nuclear receptor related 1 (Nurr1), Dopamine transporter (DAT) and Tyrosine hydroxylase (TH)), and PD associated marker (α-synuclein) were analysed to determine the effect of probucol, SPQ, HA-1 and L-Dopa.
(A) Synapsin I, (B) Nurr1, (C) DAT, (D) TH and (E) α-synuclein. (p<0.05; *p<0.05, **p<0.001, ***p<0.0001, n=3).

[11] = test system: Neurodegenerated cells (Parkinson's disease model); assay: Glutathione peroxidase / GSH activity, Parkinson's disease model; type: cell-based, human; settings: PD model; vs neurodegeneration
Protocol: as §2
Parkinson's disease-related increase in oxidative stress is associated with mitochondrial dysfunction and subsequent decrease in the levels of brain antioxidant glutathione (GSH).
(Statistical analysis: Results are expressed in mean±SD. One-way ANOVA followed by Dunnett's post hoc test was performed to compare all columns vs neurodegeneration (p<0.05; *p<0.05, **p<0.001, ***p<0.0001, ns=non-significant, n=3).)

Compound | intracellular reactive oxidative stress (ROS) [1] | synapsin 1 protein expression (immunolocalization) [2] | Nurr1 (immunolocalization) [3] | TH (immunolocalization) [3] | synapsin protein expression (immunolocalization) [3] | mitochondrial membrane potential (TMRE) [4] | glutathione (GSH) activity [5] | Acetylcholinesterase (AChE) activity [6] | mitochondrial membrane potential (TMRE) [7] | BACE1 gene expression (qRT-PCR) [8] | ChAT gene expression (qRT-PCR) [8] | neuropilin gene expression (qRT-PCR) [8] | synapsin 1 (Syn) gene expression (qRT-PCR) [8] | intracellular reactive oxidative stress (ROS) [9] | DAT gene expression (qRT-PCR) [10] | TH gene expression (qRT-PCR) [10] | α-synuclein gene expression (qRT-PCR) [10] | glutathione (GSH) activity [11] | other results
CC(=O)O[C@@H]1CC[C@@]2(C)[C@H](CC[C@@H]3[C@@H]2CC[C@]2(C)[C@@H]([C@H](C)CCC(=O)Oc4c(C(C)(C)C)cc(SC(C)(C)Sc5cc(C(C)(C)C)c(O)c(C(C)(C)C)c5)cc4C(C)(C)C)CC[C@@H]32)C1 [HA-1, 2,6-di-tert-butyl-4-((2-((3,5-di-tert-butyl-4-hydroxyphenyl)thio)propan-2-yl)thio)phenyl (4R)-4-[(3R,5R,8R,9S,10S,13R,14S,17R)-3-acetoxy-10,13-dimethyl-2,3,4,5,6,7,8,9,11,12,14,15,16,17-tetradecahydro-1H-cyclopenta[a]phenanthren-17-yl]pentanoate] | decrease the level of ROS | clear reversal of degeneration | more pronounced | more pronounced | clear restoration of synapsin expression | maintain the mitochondrial membrane potential | increase in the anti-oxidant GSH activity | inhibition of acetylcholinesterase (AChE) similar to rivastigmine | maintain the mitochondrial membrane potential | decrease the level of beta secretase 1 (BACE1) | increase the level of choline acetyltransferase (ChAT) | increased | increased | decrease the level of ROS | increase the expression of all the dopaminergic markers tested | increase the expression of all the dopaminergic markers tested | decreased expression of α-synuclein | increase in the GSH activity | accumulation of BACE1 protein (immunolocalization) [2]: least expression; accumulation of α-synuclein (immunolocalization) [3]: least expression; Nurr1 gene expression (qRT-PCR) [10]: increase the expression of all the dopaminergic markers tested
CC1(C)SC2(C=C(C(C)(C)C)C(=O)C(C(C)(C)C)=C2)C2(C=C(C(C)(C)C)C(=O)C(C(C)(C)C)=C2)S1 [SPQ, 2,4,9,11-tetrakis(1,1-dimethylethyl)-14,14-dimethyl-13,15-dithiadispiro[5.0.5.3]pentadeca-1,4,8,11-tetraene-3,10-dione] | decrease the level of ROS | clear reversal of degeneration | more pronounced | more pronounced | clear restoration of synapsin expression | maintain the mitochondrial membrane potential | increase in the anti-oxidant GSH activity | inhibition of acetylcholinesterase (AChE) similar to rivastigmine | enhanced restoration of the mitochondrial membrane potential | decrease the level of beta secretase 1 (BACE1) | increase the level of choline acetyltransferase (ChAT) | increased | increased | decrease the level of ROS | significantly increased | significantly increased | decreased expression of α-synuclein | increase in the GSH activity | Synapsin I gene expression (qRT-PCR) [10]: significantly increased
CC(C)(Sc1cc(C(C)(C)C)c(O)c(C(C)(C)C)c1)Sc1cc(C(C)(C)C)c(O)c(C(C)(C)C)c1 [probucol, 2,6-ditert-butyl-4-[2-(3,5-ditert-butyl-4-hydroxyphenyl)sulfanylpropan-2-ylsulfanyl]phenol] | decrease the level of ROS | clear reversal of degeneration | more pronounced | more pronounced | clear restoration of synapsin expression | maintain the mitochondrial membrane potential | increase in the anti-oxidant GSH activity | inhibition of acetylcholinesterase (AChE) similar to rivastigmine | maintain the mitochondrial membrane potential | decrease the level of beta secretase 1 (BACE1) | increase the level of choline acetyltransferase (ChAT) | increased | increased | decrease the level of ROS |  | clearly upregulated | decreased expression of α-synuclein | increase in the GSH activity | 
